From PubChem BioAssay AID328 (DTP/NCI, 2004)
Values joined by “and” are separate entries in the source; they are usually repeats but may differ in a detail not shown here. Equal values may be shown once. Toxic doses and inconclusive results are not listed. The calls were made as follows: active = survival T/C of 150% or more; inactive = T/C below 125% in these data.

System: BDF1 mice, P388 leukemia ip, median survival T/C
Test: NCI In Vivo Anticancer Drug Screen. Data for tumor model P388 Leukemia (intraperitoneal) in B6D2F1 (BDF1) mice
Conditions: endpoint: median survival time, higher = longer survival
Method in brief: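 Survival ratio, drug arm over vehicle arm, in mice with a transplanted tumour.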

[1] = dose: 25.0 mg/kg/injection, schedule: Q01DX009 (ip), vehicle: saline with Tween-80
[2] = dose: 25.0 mg/kg/injection, schedule: Q04DX003 (ip), vehicle: saline with Tween-80
[3] = dose: 50.0 mg/kg/injection, schedule: Q01DX009 (ip), vehicle: saline with Tween-80
[4] = dose: 50.0 mg/kg/injection, schedule: Q04DX003 (ip), vehicle: saline with Tween-80
[5] = dose: 100.0 mg/kg/injection, schedule: Q04DX003 (ip), vehicle: saline with Tween-80

Measured: T/C

CN(C)c1ccc(/C=C\C(=O)c2ccccc2)cc1
inactive: dose: 100.0 mg/kg/injection, schedule: Q01DX009 (ip), vehicle: Klucel (hydroxypropylcellulose) (HPC) 100 % of control | dose: 200.0 mg/kg/injection, schedule: Q01DX009 (ip), vehicle: Klucel (hydroxypropylcellulose) (HPC) 110 % of control | dose: 400.0 mg/kg/injection, schedule: Q01DX009 (ip), vehicle: Klucel (hydroxypropylcellulose) (HPC) 120 % of control

CCCCCCCCCCCCCCC(F)C(=O)O (stereo unspecified)
inactive: dose: 6.25 mg/kg/injection, schedule: Q01DX009 (ip), vehicle: Klucel (hydroxypropylcellulose) (HPC) 100 % of control | dose: 12.5 mg/kg/injection, schedule: Q01DX009 (ip), vehicle: Klucel (hydroxypropylcellulose) (HPC) 91 % of control | dose: 25.0 mg/kg/injection, schedule: Q01DX009 (ip), vehicle: Klucel (hydroxypropylcellulose) (HPC) 91 % of control and 95 % of control | dose: 100.0 mg/kg/injection, schedule: Q04DX003 (ip), vehicle: Klucel (hydroxypropylcellulose) (HPC) 95 % of control

CCC(=O)c1ccc(OCC(O)CN2CCC(O)(c3ccccc3)CC2)cc1 (stereo unspecified)
inactive: [1] 111 % of control | [2] 109 % of control | [3] 103 % of control | [4] 109 % of control | dose: 100.0 mg/kg/injection, schedule: Q01DX009 (ip), vehicle: saline with Tween-80 88 % of control | [5] 104 % of control

CS(=O)(=O)OCC(O)C(O)C(O)C(O)COS(C)(=O)=O (stereo unspecified)
inactive: dose: 25.0 mg/kg/injection, schedule: Q01DX010 (ip), vehicle: saline 108 % of control | dose: 50.0 mg/kg/injection, schedule: Q01DX010 (ip), vehicle: saline 116 % of control

CCCCCCCCCCCCCCCCS(=O)(=O)CCO
inactive: [5] 104 % of control | dose: 200.0 mg/kg/injection, schedule: Q04DX003 (ip), vehicle: saline with Tween-80 91 % of control

O/N=C(\c1ccccc1)c1ccccn1
inactive: dose: 12.5 mg/kg/injection, schedule: Q01DX009 (ip), vehicle: saline with Tween-80 96 % of control | [1] 90 % of control | [3] 96 % of control

Cc1cc(O)c2c(c1)C(=O)C=CC2=O
inactive: dose: 0.12 mg/kg/injection, schedule: Q01DX009 (ip), vehicle: other 107 % of control | dose: 0.25 mg/kg/injection, schedule: Q01DX009 (ip), vehicle: other 101 % of control | dose: 0.5 mg/kg/injection, schedule: Q01DX009 (ip), vehicle: other 117 % of control | dose: 0.54 mg/kg/injection, schedule: Q01DX009 (ip), vehicle: alcohol 120 % of control | dose: 0.82 mg/kg/injection, schedule: Q01DX009 (ip), vehicle: alcohol 110 % of control | dose: 1.0 mg/kg/injection, schedule: Q01DX009 (ip), vehicle: other 103 % of control | dose: 1.25 mg/kg/injection, schedule: Q01DX009 (ip), vehicle: alcohol 106 % of control | dose: 1.8 mg/kg/injection, schedule: Q01DX009 (ip), vehicle: alcohol 102 % of control | dose: 2.0 mg/kg/injection, schedule: Q01DX009 (ip), vehicle: other 101 % of control | dose: 2.5 mg/kg/injection, schedule: Q01DX009 (ip), vehicle: alcohol 121 % of control

CC(=O)c1ccc2c(c1)N(CCCN1CCN(CCO)CC1)c1ccccc1S2
inactive: dose: 3.12 mg/kg/injection, schedule: Q01DX009 (ip), vehicle: saline 107 % of control | dose: 6.25 mg/kg/injection, schedule: Q01DX009 (ip), vehicle: saline 96 % of control | dose: 12.5 mg/kg/injection, schedule: Q01DX009 (ip), vehicle: saline 94 % of control

O=C(/C=C/c1ccc(Cl)c(Cl)c1)c1ccc(Cl)cc1
inactive: dose: 12.5 mg/kg/injection, schedule: Q04DX003 (ip), vehicle: saline with Tween-80 100 % of control | [2] 100 % of control | [4] 90 % of control
